{"source": "patent US11213495B2", "about": "“Method and composition for decreasing the psychotomimetic side effect and addictive disorder of ketamine” (NATIONAL HEALTH RESEARCH INSTITUTES, priority 2016, dated 2022)", "type_in_all_cases": "in vivo", "key": {"[1]": {"system": "Male ICR mice", "assay": "Forced swim test (FST): duration of immobility, struggling and swimming", "details": "DMG 30 mg/kg pretreatment prior to ketamine 10 mg/kg", "procedure": "FST was conducted for two consecutive days. Mice were placed in a Plexiglas cylinder (33.5 cm height, 20 cm diameter) filled with 25±2° C. water to a height of 18-20 cm. For the first exposure, mice were placed in the water for 15 min (pre-test session) followed by […]. Twenty-four hours later (day 1 test session), various doses of test drug (at 0, 30 and 100 mg/kg) was administered 30 min prior to the ketamine (10 mg/kg) or saline. Then, the mice were tested 30 min after ketamine injection which placed in the water again for a 6 min session (test session), the first 2 minutes has elapsed. Immobility was assigned when no additional activity was observed other than that required to keep the head above the water.\nThis experiment included a control group and various doses of ketamine (3, 10, 15 mg/kg), betaine (10, 20, 30 mg/kg) and betaine (10, 20, 30 mg/kg) pretreatment prior to ketamine (fixed dose at 10 mg/kg). […] There was no significant effect of test session or interaction."}, "[2]": {"system": "Male ICR mice", "assay": "Rotarod test (motor coordination)", "details": "DMG 30 and 100 mg/kg prior to ketamine 30 mg/kg", "procedure": "Motor coordination was examined using an automated rotarod device (Singa; Technology Co., Ltd, Taiwan) for a maximum of 6 mice. A computer recorded the latency to fall in seconds. During two-three days training period, the mice were first trained on the rotarod at a constant speed of 20 rotations per minute (rpm) until all of the mice were able to spend at least 3 min on the road. The test drug (0, 30 and 100 mg/kg) was administered 30 min prior to the ketamine (30 mg/kg) or saline injection. Then, the mice were tested 10, 15, 20, 25, and 30 min after ketamine injection."}, "[3]": {"system": "Male ICR mice", "assay": "Prepulse inhibition test (PPI) of acoustic startle", "details": "DMG 100 mg/kg pretreatment, ketamine 30 mg/kg; p<0.001", "procedure": "The PPI was operated as described in our previous work (Chan et al., 2012a). Briefly, the animals were initially moved from the home cage, weighed, and then placed into the restrainers in the SR-LAB (San Diego Instruments, San Diego, Calif., USA) acoustic startle chambers for 30-min habituation. The test drug (0, 30 and 100 mg/kg) was administered 30 min prior to ketamine (30 mg/kg) or saline injection. After administration of ketamine or saline, the experiment started with a 5-min adaptation period during which the animals were exposed to 67-dB background white noise, and this background noise was continued throughout the session. Then, the following adaptation period startle session began with five initial startle stimuli (120 dB bursts of white noise, 40 ms duration). After the first five initial stimuli, mice received five different trial types: pulse alone trials (120 dB bursts of white noise, 40 ms duration), three prepulse and pulse trials in which 76, 81, or 86 dB white noise bursts (9, 14, and 19 dB above background) of 20 ms duration preceded 120 dB pulse by 100 ms prepulse onset to pulse onset, and no-stimuli trials during which only background noise was applied. Each of these trial types was presented five times in randomized order. The inter trial interval was 7-23 s, and the test lasted 15 min in total. Prepulse inhibition was calculated as the percent inhibition of the startle amplitude evoked by the pulse alone: % PPI=(magnitude on pulse alone trial−magnitude on prepulse+pulse trial/magnitude on pulse alone trial)×100."}, "[4]": {"system": "Male ICR mice", "assay": "Novel object recognition test (NORT)", "details": "DMG 100 mg/kg pretreatment, ketamine 30 mg/kg; 24 h after sample phase", "procedure": "(§1) The novel location recognition test (NLRT) and novel object recognition test (NORT) were examined in a Plexiglas open field box (35×35×30 cm) located in a sound-attenuated room and illuminated with a 20-W light bulb. The novel location and novel object recognition procedure consisted of habituation, training, and retention sessions. Habituation was conducted in two consecutive daily sessions, during which each mouse was allowed to individually explore the box in the absence of objects for 20 min. The animal is then removed from the arena and placed in its home cage. During the sample phase, each animal was placed in the box, and after 5 min, two identical sample objects (A+A) were simultaneously introduced in two corners. Each animal was allowed to explore the objects for 5 min. An animal was considered to explore the object when its head was facing the object at a distance of approximately 1 cm or less between the head and object or when it was touching or sniffing the object. The time spent exploring each object was recorded using stopwatches by an experimenter blind to the treatment condition.\nAfter the sample phase, the mice were immediately returned to their home cages. The novel location recognition test was conducted 30 min after the training session. The animals were returned to the same box as during the sample phase, and one of the two objects was replaced with a novel local corner (A+A′) to test the location-based recognition memory. After 24 hours, novel object recognition test was performed. The mice are allowed to explore the open field with one identical sample object and a novel object to assess the novel object recognition memory (A+B). The animals were allowed to explore the box freely for 5 min, and the time spent exploring each object was recorded as described above. The objects and chambers were cleaned with 70% ethanol after each use. A preference index, a ratio of the amount of time spent exploring the original object or the novel location/object over the total time spent exploring both objects, was used to evaluate recognition memory. […]"}, "[5]": {"system": "Male ICR mice", "assay": "Novel location recognition test (NLRT)", "details": "DMG 100 mg/kg pretreatment, ketamine 30 mg/kg; 30 min after sample phase", "procedure": "as §1\nAfter the sample phase, the mice were immediately returned to their home cages. […] The animals were allowed to explore the box freely for 5 min, and the time spent exploring each object was recorded as described above. […]"}, "[6]": {"system": "Male ICR mice", "assay": "Loss of righting reflex (LORR)", "details": "DMG 100 and 300 mg/kg 30 min prior to ketamine 100 mg/kg", "procedure": "The test drug betaine (0, 300, and 600 mg/kg) or DMG (0, 100 and 300 mg/kg) was administered 30 min prior to the anesthetic doses of ketamine (100 mg/kg). Then, the mice were placed in a clean cage until the righting reflex was lost. They were then placed in the supine position until recovery and the onset and duration of the loss of righting reflex was recorded. Recovery of the righting reflex was defined as the ability to perform three successive rightings."}, "[7]": {"system": "Male ICR mice", "assay": "Open field test / locomotor activity", "details": "DMG 30 and 100 mg/kg pretreatment 30 min prior to ketamine 30 mg/kg", "procedure": "To evaluate the effect of DMG on ketamine-induced locomotor hyperactivity, the animals were moved from the home cage, weighed and placed into an activity cage (Columbus Auto-Track System, Version 3.0 A, Columbus Institute, Columbus, Ohio, USA) for 2 hours. Thereafter, the test drug (0, 30, and 100 mg/kg) was given 30 min prior to ketamine (30 mg/kg) or saline. The distance (cm) traveled was recorded for totally 180 min. A 70% alcohol solution was used to clean the inner surface of all the testing apparatus between trials to remove any potentially interfering odors left by the previous mouse."}, "[8]": {"system": "Male Sprague-Dawley rats", "assay": "Ketamine intravenous self-administration (IVSA) under progressive ratio (PR) schedule", "procedure": "The dose-dependent effects of betaine and its metabolite DMG on ketamine addiction were evaluated by the intravenous self-administration (IVSA) paradigm under a progressive ratio (PR) schedule. Animals were implanted indwelling catheters flushing of ketamine (0.5 mg/kg/per infusion), termed the training dose, under a FR1 schedule during daily 3-h sessions. After acquisition of stable responding for ketamine (criterion of less than 20% deviation from the mean of the total number of reinforcers earned in three consecutive sessions for each rat), the ketamine reinforcement schedule was changed to FR2 and maintained until responding stabilized at least for 3 days. Then, the PR schedule was conducted. The lever presses required to gain an infusion was determined by: 5×e^(infusion number×0.2)−5 (i.e., 1, 2, 4, 6, 9, […], 15, 20, 25, 32, etc). […] The dose-dependent effects of betaine of self-administration of various doses of ketamine ([…]) were assessed by pretreatment 30 min prior to their daily operant session using a within-subject Latin square design."}, "[9]": {"system": "Male ICR mice", "assay": "Forced swim test (FST): duration of immobility, struggling and swimming"}}, "data": [{"smiles": "CN(C)CC(=O)O", "note": "[DMG, N,N-dimethylglycine]", "values": [{"measurement": "duration of immobility in FST compared with ketamine (10 mg/kg) alone", "setting": "[1]", "result": "significantly shorter duration of immobility"}, {"measurement": "ketamine-induced motor in coordination", "setting": "[2]", "result": "significantly reduced"}, {"measurement": "ketamine-induced disruption of PPI", "setting": "[3]", "result": "significantly attenuated"}, {"measurement": "ketamine-induced recognition memory impairment in NORT", "setting": "[4]", "result": "significantly attenuated"}, {"measurement": "ketamine-induced recognition memory impairment in NLRT", "setting": "[5]", "result": "significantly attenuated"}, {"measurement": "duration of ketamine-induced loss of righting reflex", "setting": "[6]", "result": "did not affect"}, {"measurement": "onset of ketamine-induced loss of righting reflex", "setting": "[6]", "result": "did not affect"}, {"measurement": "ketamine-induced locomotor hyperactivity", "setting": "[7]", "result": "reduced"}, {"measurement": "reduction of cumulative responses by ketamine", "setting": "[8]; DMG 100 mg/kg pretreatment, ketamine 0.3 mg/kg/infusion, PR schedule", "result": 40, "unit": "%"}, {"measurement": "ketamine self-administration under PR schedule", "setting": "[8]; DMG pretreatment", "result": "significantly decreased"}, {"measurement": "duration of immobility in FST", "setting": "[9]; DMG 10, 20 and 30 mg/kg alone", "result": "significantly decreased"}, {"measurement": "duration of immobility in FST", "setting": "[9]; DMG 10, 20 and 30 mg/kg pretreatment prior to ketamine 10 mg/kg", "result": "significantly decreased"}]}]}
